Earlier results as cited in US20060058589A1, “Animal model to evaluate visceral pain perception” (priority 2002, published 2006).

Test system: visceromotor response to duodenal distention
Settings: conscious, freely moving rats; dose-dependent manner

CN1CC[C@]23c4c5ccc(O)c4O[C@H]2[C@@H](O)C=C[C@H]3[C@H]1C5 [morphine]
visceromotor response to duodenal distention: inhibited
